Values after ≈ are worked out from the molar mass of the structure shown. Peptide text beside a SMILES is read from it. * marks the point of attachment. C18 diacid = O=C(O)CCCCCCCCCCCCCCCCC(=O)*; Palmitoyl = CCCCCCCCCCCCCCCC(=O)*
Assay: Assay (IV) determination of solubility
Type: physicochemical
Description: Assay (IV)—Determination of Solubility
The mimylin peptide was dissolved in water at ˜500 nmol/ml and mixed 1:1 with a series of buffers (100 mM glycylglycine pH 3.0, 100 mM glycylglycine pH 4.0, 100 mM glycylglycine pH 5.0, 100 mM bistrispropane pH 6.0, 100 mM bistrispropane pH 6.5, 100 mM bistrispropane pH 7.0, 100 mM bistrispropane pH 7.5, 100 mM bistrispropane pH 8.0).

| SMILES | Solubility (pH 3.0) | solubility at 18 h (pH 4.0) | solubility at 18 h (pH 5.0) | Solubility (pH 6.0) | Solubility (pH 6.5) | Solubility (pH 7.0) | Solubility (pH 7.5) | Solubility (pH 8.0) | Solubility (pH 4.0) | Solubility (pH 5.0) |
| --- | --- | --- | --- | --- | --- | --- | --- | --- | --- | --- |
| CC[C@H](C)[C@H](NC(=O)[C@H](CCC(=O)O)NC(=O)[C@H](CO)NC(=O)[C@H](C)NC(=O)[C@H](CCC(=O)O)NC(=O)CCCCCCCCCCCCCCCCC(=O)O)C(=O)N[C@@H](CO)C(=O)N[C@H](C(=O)N[C@@H](C)C(=O)N[C@@H](C)C(=O)N[C@@H](CC(C)C)C(=O)NCC(=O)N[C@@H](CCCNC(=N)N)C(=O)N[C@@H](CC(C)C)C(=O)N[C@@H](CO)C(=O)N[C@@H](C)C(=O)N[C@@H](CCC(=O)O)C(=O)N[C@@H](CC(C)C)C(=O)N[C@@H](Cc1cnc[nH]1)C(=O)N[C@@H](CCC(=O)O)C(=O)N[C@@H](CC(C)C)C(=O)N[C@@H](C)C(=O)N[C@H](C(=O)N[C@@H](CC(C)C)C(=O)N1CCC[C@H]1C(=O)N[C@@H](CCCNC(=N)N)C(=O)N[C@H](C(=O)N[C@@H](CCC(=O)O)C(=O)N[C@H](C(=O)NCC(=O)N1CCC[C@H]1C(=O)N[C@@H](CCC(=O)O)C(=O)N[C@@H](CO)C(=O)N1CCC[C@H]1C(N)=O)[C@@H](C)O)[C@@H](C)O)[C@@H](C)O)[C@@H](C)O [Ex. #8, [N-terminal(C18 diacid), 5I]mimylin] ({C18 diacid}-EASEISTAALGRLSAELHELATLPRTETGPESP-NH2) | ≧200 μM | 94 µM (≈ 351 µg/mL) | 35 µM (≈ 131 µg/mL) | ≧200 μM | ≧200 μM | ≧200 μM | ≧200 μM | ≧200 μM | – | – |
| CCCCCCCCCCCCCCCC(=O)N[C@@H](CCC(=O)O)C(=O)N[C@@H](C)C(=O)N[C@@H](CO)C(=O)N[C@@H](CCC(=O)O)C(=O)N[C@@H](CC(C)C)C(=O)N[C@@H](CO)C(=O)N[C@H](C(=O)N[C@@H](C)C(=O)N[C@@H](C)C(=O)N[C@@H](CC(C)C)C(=O)NCC(=O)N[C@@H](CCCNC(=N)N)C(=O)N[C@@H](CC(C)C)C(=O)N[C@@H](CO)C(=O)N[C@@H](C)C(=O)N[C@@H](CCC(=O)O)C(=O)N[C@@H](CC(C)C)C(=O)N[C@@H](Cc1cnc[nH]1)C(=O)N[C@@H](CCC(=O)O)C(=O)N[C@@H](CC(C)C)C(=O)N[C@@H](C)C(=O)N[C@H](C(=O)N[C@@H](CC(C)C)C(=O)N1CCC[C@H]1C(=O)N[C@@H](CCCNC(=N)N)C(=O)N[C@H](C(=O)N[C@@H](CCC(=O)O)C(=O)N[C@H](C(=O)NCC(=O)N1CCC[C@H]1C(=O)N[C@@H](CCC(=O)O)C(=O)N[C@@H](CO)C(=O)N1CCC[C@H]1C(N)=O)[C@@H](C)O)[C@@H](C)O)[C@@H](C)O)[C@@H](C)O [compound 7, [N-terminal(C16)]mimylin] (Palmitoyl-EASELSTAALGRLSAELHELATLPRTETGPESP-NH2) | ≧200 μM | – | – | ≧200 μM | ≧200 μM | ≧200 μM | ≧200 μM | ≧200 μM | ≧200 μM | ≧200 μM |
| CC[C@H](C)[C@H](NC(=O)[C@H](C)NC(=O)[C@@H](NC(=O)[C@H](CO)NC(=O)[C@H](CC(C)C)NC(=O)[C@H](CCC(=O)O)NC(=O)[C@H](CO)NC(=O)[C@H](C)NC(=O)[C@H](CCC(=O)O)NC(=O)CCCCCCCCCCCCCCCCC(=O)O)[C@@H](C)O)C(=O)N[C@@H](CC(C)C)C(=O)NCC(=O)N[C@@H](CCCNC(=N)N)C(=O)N[C@@H](CC(C)C)C(=O)N[C@@H](CO)C(=O)N[C@@H](C)C(=O)N[C@@H](CCC(=O)O)C(=O)N[C@@H](CC(C)C)C(=O)N[C@@H](Cc1cnc[nH]1)C(=O)N[C@@H](CCC(=O)O)C(=O)N[C@@H](CC(C)C)C(=O)N[C@@H](C)C(=O)N[C@H](C(=O)N[C@@H](CC(C)C)C(=O)N1CCC[C@H]1C(=O)N[C@@H](CCCNC(=N)N)C(=O)N[C@H](C(=O)N[C@@H](CCC(=O)O)C(=O)N[C@H](C(=O)NCC(=O)N1CCC[C@H]1C(=O)N[C@@H](CCC(=O)O)C(=O)N[C@@H](CO)C(=O)N1CCC[C@H]1C(N)=O)[C@@H](C)O)[C@@H](C)O)[C@@H](C)O [compound 10, [N-terminal(C18 diacid), 9I]mimylin] ({C18 diacid}-EASELSTAILGRLSAELHELATLPRTETGPESP-NH2) | ≧200 μM | 182 µM (≈ 687 µg/mL) | – | ≧200 μM | ≧200 μM | ≧200 μM | ≧200 μM | ≧200 μM | – | ≧200 μM |
| CC(C)C[C@H](NC(=O)[C@H](C)NC(=O)[C@@H](NC(=O)[C@H](CO)NC(=O)[C@H](CC(C)C)NC(=O)[C@H](CCC(=O)O)NC(=O)[C@H](CO)NC(=O)[C@H](C)NC(=O)[C@H](CCC(=O)O)NC(=O)CCCCCCCCCCCCCCCCC(=O)O)[C@@H](C)O)C(=O)N[C@@H](CC(C)C)C(=O)NCC(=O)N[C@@H](CCCNC(=N)N)C(=O)N[C@@H](CC(C)C)C(=O)N[C@@H](CO)C(=O)N[C@@H](C)C(=O)N[C@@H](CCC(=O)O)C(=O)N[C@@H](CC(C)C)C(=O)N[C@@H](Cc1cnc[nH]1)C(=O)N[C@@H](CCC(=O)O)C(=O)N[C@@H](CC(C)C)C(=O)N[C@@H](C)C(=O)N[C@H](C(=O)N[C@@H](CC(C)C)C(=O)N1CCC[C@H]1C(=O)N[C@@H](CCCNC(=N)N)C(=O)N[C@H](C(=O)N[C@@H](CCC(=O)O)C(=O)N[C@H](C(=O)NCC(=O)N1CCC[C@H]1C(=O)N[C@@H](CCC(=O)O)C(=O)N[C@@H](CO)C(=O)N1CCC[C@H]1C(N)=O)[C@@H](C)O)[C@@H](C)O)[C@@H](C)O [compound 14, [N-terminal(C18 diacid), 9L]mimylin] ({C18 diacid}-EASELSTALLGRLSAELHELATLPRTETGPESP-NH2) | ≧200 μM | – | – | ≧200 μM | ≧200 μM | ≧200 μM | ≧200 μM | ≧200 μM | ≧200 μM | ≧200 μM |
| CC(C)C[C@H](NC(=O)[C@H](C)NC(=O)[C@H](CC(C)C)NC(=O)[C@@H](NC(=O)[C@H](CO)NC(=O)[C@H](CC(C)C)NC(=O)[C@H](CCC(=O)O)NC(=O)[C@H](CO)NC(=O)[C@H](C)NC(=O)[C@H](CCC(=O)O)NC(=O)CCCCCCCCCCCCCCCCC(=O)O)[C@@H](C)O)C(=O)NCC(=O)N[C@@H](CCCNC(=N)N)C(=O)N[C@@H](CC(C)C)C(=O)N[C@@H](CO)C(=O)N[C@@H](C)C(=O)N[C@@H](CCC(=O)O)C(=O)N[C@@H](CC(C)C)C(=O)N[C@@H](Cc1cnc[nH]1)C(=O)N[C@@H](CCC(=O)O)C(=O)N[C@@H](CC(C)C)C(=O)N[C@@H](C)C(=O)N[C@H](C(=O)N[C@@H](CC(C)C)C(=O)N1CCC[C@H]1C(=O)N[C@@H](CCCNC(=N)N)C(=O)N[C@H](C(=O)N[C@@H](CCC(=O)O)C(=O)N[C@H](C(=O)NCC(=O)N1CCC[C@H]1C(=O)N[C@@H](CCC(=O)O)C(=O)N[C@@H](CO)C(=O)N1CCC[C@H]1C(N)=O)[C@@H](C)O)[C@@H](C)O)[C@@H](C)O [compound 15, [N-terminal(C18 diacid), 8L]mimylin] ({C18 diacid}-EASELSTLALGRLSAELHELATLPRTETGPESP-NH2) | ≧200 μM | – | – | ≧200 μM | ≧200 μM | ≧200 μM | ≧200 μM | ≧200 μM | ≧200 μM | ≧200 μM |

Second part, the compound after the results:

| Solubility (pH 3.0) | solubility at 18 h (pH 4.0) | solubility at 18 h (pH 5.0) | Solubility (pH 6.0) | Solubility (pH 6.5) | Solubility (pH 7.0) | Solubility (pH 7.5) | Solubility (pH 8.0) | Solubility (pH 4.0) | Solubility (pH 5.0) | SMILES |
| --- | --- | --- | --- | --- | --- | --- | --- | --- | --- | --- |
| ≧200 μM | – | – | ≧200 μM | ≧200 μM | ≧200 μM | ≧200 μM | ≧200 μM | ≧200 μM | ≧200 μM | CC[C@H](C)[C@H](NC(=O)[C@H](CCC(=O)O)NC(=O)[C@H](C)NC(=O)[C@H](CO)NC(=O)[C@H](CC(C)C)NC(=O)[C@H](CCCNC(=N)N)NC(=O)CNC(=O)[C@H](CC(C)C)NC(=O)[C@H](C)NC(=O)[C@H](C)NC(=O)[C@@H](NC(=O)[C@H](CO)NC(=O)[C@H](CC(C)C)NC(=O)[C@H](CCC(=O)O)NC(=O)[C@H](CO)NC(=O)[C@H](C)NC(=O)[C@H](CCC(=O)O)NC(=O)CCCCCCCCCCCCCCCCC(=O)O)[C@@H](C)O)C(=O)N[C@@H](Cc1cnc[nH]1)C(=O)N[C@@H](CCC(=O)O)C(=O)N[C@@H](CC(C)C)C(=O)N[C@@H](C)C(=O)N[C@H](C(=O)N[C@@H](CC(C)C)C(=O)N1CCC[C@H]1C(=O)N[C@@H](CCCNC(=N)N)C(=O)N[C@H](C(=O)N[C@@H](CCC(=O)O)C(=O)N[C@H](C(=O)NCC(=O)N1CCC[C@H]1C(=O)N[C@@H](CCC(=O)O)C(=O)N[C@@H](CO)C(=O)N1CCC[C@H]1C(N)=O)[C@@H](C)O)[C@@H](C)O)[C@@H](C)O [compound 11, [N-terminal(C18 diacid), 17I]mimylin] ({C18 diacid}-EASELSTAALGRLSAEIHELATLPRTETGPESP-NH2) |
| ≧200 μM | – | – | ≧200 μM | ≧200 μM | ≧200 μM | ≧200 μM | ≧200 μM | ≧200 μM | ≧200 μM | CC[C@H](C)[C@H](NC(=O)[C@H](CCC(=O)O)NC(=O)[C@H](Cc1cnc[nH]1)NC(=O)[C@H](CC(C)C)NC(=O)[C@H](CCC(=O)O)NC(=O)[C@H](C)NC(=O)[C@H](CO)NC(=O)[C@H](CC(C)C)NC(=O)[C@H](CCCNC(=N)N)NC(=O)CNC(=O)[C@H](CC(C)C)NC(=O)[C@H](C)NC(=O)[C@H](C)NC(=O)[C@@H](NC(=O)[C@H](CO)NC(=O)[C@H](CC(C)C)NC(=O)[C@H](CCC(=O)O)NC(=O)[C@H](CO)NC(=O)[C@H](C)NC(=O)[C@H](CCC(=O)O)NC(=O)CCCCCCCCCCCCCCCCC(=O)O)[C@@H](C)O)C(=O)N[C@@H](C)C(=O)N[C@H](C(=O)N[C@@H](CC(C)C)C(=O)N1CCC[C@H]1C(=O)N[C@@H](CCCNC(=N)N)C(=O)N[C@H](C(=O)N[C@@H](CCC(=O)O)C(=O)N[C@H](C(=O)NCC(=O)N1CCC[C@H]1C(=O)N[C@@H](CCC(=O)O)C(=O)N[C@@H](CO)C(=O)N1CCC[C@H]1C(N)=O)[C@@H](C)O)[C@@H](C)O)[C@@H](C)O [compound 12, [N-terminal(C18 diacid), 20I]mimylin] ({C18 diacid}-EASELSTAALGRLSAELHEIATLPRTETGPESP-NH2) |

Source: patent US9593149B2, “Amylin and calcitonin receptor agonist” (Novo Nordisk A/S, priority 2014, dated 2017)
